Key:
Parameters in all cases: key: “+” indicates that the compound exibits inhibitory activity; “−” indicates that low or no inhibitory activity was observed
[1] = target: E3 (His-APC11/APC2-"APC") (Homo sapiens, UniProt Q9NYG5+Q9UJX6); assay: Plate-based E3 ligase assay (APC FLAG), auto-ubiquitination; format: biochemical; settings: for APC Flag 8 pt: 8 concentrations tested; for APC Flag (2 pt): 2 concentrations tested
Method in brief: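 His-APC11/APC2 auto-ubiquitination was run in casein-blocked nickel plates for 1 h at room temperature, with E1 at 5 ng/well, UbcH5c at 20 ng/well and APC at 100 ng/well. Buffer was 62.5 mM Tris pH 7.6, 3 mM MgCl2, 1 mM DTT, 2.5 mM ATP and Flag-ubiquitin at 100 ng/well. Detection used anti-Flag/HRP chemiluminescence, and IC50 was typically from 6 or 8 concentrations versus a DMSO control.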

A549 cells = assay: Cell proliferation assay, photographic image analysis of proliferation, apoptosis and death (PAD assay), A549; format: cell-based; settings: 6 concentrations tested
Experimental: (§1) A549 (ATCC# CCL-185), HeLa (ATCC# CCL-2), HCT116 (ATCC# CCL-247), and H1299 (ATCC# CRL-5803) cells were maintained in T175 flasks following the ATCC recommended media and handling procedures. Flasks reaching approximately 70% confluency were trypsinized and resuspended in RPMI media (Cell-Gro catalog number 10-040-CM) modified to contain 5% FBS, 100 ug/mlPen/Strep (Cell-Gro catalog number 30-002-CL), and 0.3 mg/ml L-Glutamine (Cell-Gro catalog number 25-003-CL). A 20,000 cells/ml solution was made for plating. Cells were plated in black Packard 96 well plates by placing 100 μl per well (2,000 cells per well).
(§2) Compounds and additional media were added 24 hours after cell plating. A compound master plate was created with concentrations 500 times greater than the final concentration added to the cells. All compound testing was done in duplicate using 6.3 fold dilutions starting with 10 mM. All outside wells (and 4 internal wells) were DMSO controls. Taxol and at least one additional control were run on all plates. Three microliters of the compound master plate were added to deep well blocks containing 750 μl of RPMI media. One hundred microliters were transferred from the compound/media deep well blocks to the plated cells resulting in a 500 fold dilution of the compounds. Cells were grown at 37° C., 5% CO2 for 48 hours.
(§3) Cells to be analyzed by photography were fixed and stained. One hundred microliters of media were removed and 100 μl of 9.3% […] was added to each well. Plates were left on the benchtop for 45 minutes. A staining solution containing 1.55 μl of 1 mg/ml DAPI added to 18.75 ml PBS was warmed for 15 minutes at 37° C. The cells were aspirated prior to washing with 100 μl of PBS. Seventy microliters of PBS were aspirated and 170 μl of the DAPI solution were added to each well of fixed cells. Plates were left at room temperature for one hour then aspirated and washed twice with 100 μl of PBS. The stained cells were left at 4° C. for a minimum of 16 hours before photographic analysis with Array Scan II (Cellomics). Analysis of the photographic images to determine numbers of live cells (proliferation), apoptotic cells and dead cells, were according to the methods described in U.S. Provisional Patent Application Ser. No. 60/406,714, which incorporated herein in its entirety.

HeLa cells = assay: Cell proliferation assay, photographic image analysis of proliferation, apoptosis and death (PAD assay), HeLa; format: cell-based; settings: 6 concentrations tested
Experimental: as §1, §2, §3

Sequence of E3 (His-APC11/APC2-"APC") (Q9NYG5 whole entry): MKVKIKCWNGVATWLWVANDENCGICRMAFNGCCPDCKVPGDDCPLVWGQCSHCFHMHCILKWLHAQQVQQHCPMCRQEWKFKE
Sequence of E3 (His-APC11/APC2-"APC") (Q9UJX6 whole entry): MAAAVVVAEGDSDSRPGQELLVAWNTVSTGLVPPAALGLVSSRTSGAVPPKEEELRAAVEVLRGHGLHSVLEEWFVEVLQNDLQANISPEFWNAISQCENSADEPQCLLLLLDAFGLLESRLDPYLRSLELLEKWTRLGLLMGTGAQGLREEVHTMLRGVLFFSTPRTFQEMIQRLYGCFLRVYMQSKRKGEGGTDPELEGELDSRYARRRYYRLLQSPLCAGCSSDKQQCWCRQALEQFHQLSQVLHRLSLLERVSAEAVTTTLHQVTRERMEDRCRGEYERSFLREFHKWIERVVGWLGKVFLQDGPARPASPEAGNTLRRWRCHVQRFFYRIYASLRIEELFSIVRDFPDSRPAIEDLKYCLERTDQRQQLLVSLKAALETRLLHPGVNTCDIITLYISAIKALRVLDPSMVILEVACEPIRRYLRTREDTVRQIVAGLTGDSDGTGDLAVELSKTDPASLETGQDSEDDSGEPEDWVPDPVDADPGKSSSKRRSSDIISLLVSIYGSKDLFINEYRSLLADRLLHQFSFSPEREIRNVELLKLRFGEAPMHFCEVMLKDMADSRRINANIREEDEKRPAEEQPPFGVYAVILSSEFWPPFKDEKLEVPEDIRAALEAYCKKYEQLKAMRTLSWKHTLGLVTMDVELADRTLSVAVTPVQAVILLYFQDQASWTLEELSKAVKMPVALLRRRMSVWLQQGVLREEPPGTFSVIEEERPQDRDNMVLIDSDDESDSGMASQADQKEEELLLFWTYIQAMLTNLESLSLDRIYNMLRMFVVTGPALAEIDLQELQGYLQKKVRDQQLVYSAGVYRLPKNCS

| SMILES | APC Flag 8 pt [1] | APC Flag (2 pt) [1] | PAD Assay, A549 6 pt (A549 cells) | PAD Assay, HELA 6 pt (HeLa cells) |
| --- | --- | --- | --- | --- |
| O=[N+]([O-])c1ccc(Oc2ccc(NS(=O)(=O)c3cc(Cl)ccc3Cl)cc2)cc1 [Compound 273, 2,5-dichloro-N-[4-(4-nitrophenoxy)phenyl]benzenesulfonamide] | + |  | + | − |
| O=[N+]([O-])c1ccc(Oc2c(Cl)cc(S(=O)(=O)Nc3ccccn3)cc2Cl)c(Cl)c1 [Compound 216, 3,5-dichloro-4-(2-chloro-4-nitrophenoxy)-N-pyridin-2-ylbenzenesulfonamide] |  | − (2 pt) | + | + |
| Cc1cc(NS(=O)(=O)c2cc(Cl)c(Oc3ccc([N+](=O)[O-])cc3Cl)c(Cl)c2)no1 [Example 217, 3,5-dichloro-4-(2-chloro-4-nitrophenoxy)-N-(5-methylisoxazol-3-yl)benzenesulfonamide] |  | − (2 pt) | − | − |
| O=C(Nc1ccc(Oc2ccc(F)cc2)c(Br)c1)c1cccc(Cl)c1 [Compound 303] | − |  | + | + |
| Cc1ccc(C(F)(F)F)cc1NS(=O)(=O)c1cc(Cl)c(Oc2ccc([N+](=O)[O-])cc2Cl)c(Cl)c1 [Example 229, 3,5-dichloro-4-(2-chloro-4-nitrophenoxy)-N-[2-methyl-5-(trifluoromethyl)phenyl] benzenesulfonamide] | + |  | + | + |
| Cc1cc(F)ccc1NS(=O)(=O)c1cc(Cl)c(Oc2ccc([N+](=O)[O-])cc2Cl)c(Cl)c1 [Example 236, 3,5-dichloro-4-(2-chloro-4-nitrophenoxy)-N-(4-fluoro-2-methylphenyl)benzene-sulfonamide] | + |  | + | + |
| O=[N+]([O-])c1ccc(Oc2c(Cl)cc(S(=O)(=O)Nc3cc(F)ccc3F)cc2Cl)c(Cl)c1 [Example 237, 3,5-dichloro-4-(2-chloro-4-nitrophenoxy)-N-(2,5-difluorophenyl)benzenesulfonamide] | + |  | + | + |
| CC(C)(C)c1cccc(C(C)(C)C)c1NS(=O)(=O)c1cc(Cl)c(Oc2ccc([N+](=O)[O-])cc2Cl)c(Cl)c1 [Example 231, 3,5-dichloro-4-(2-chloro-4-nitrophenoxy)-N-(2,6-di-tert-butylphenyl)benzenesulfonamide] | + |  | + | + |
| O=[N+]([O-])c1ccc(Oc2ccc(S(=O)(=O)Nc3cc(Cl)ccc3C(F)(F)F)cc2Cl)c(C(F)(F)F)c1 [Compound 267, 3-chloro-N-[5-chloro-2-(trifluoromethyl)phenyl]-4-[4-nitro-2-(trifluoromethyl)phenoxy]benzenesulfonamide] | + |  | + | + |
| O=[N+]([O-])c1ccc(Oc2c(Cl)cc(S(=O)(=O)Nc3cccc(F)c3)cc2Cl)c(Cl)c1 [Example 232, 3,5-dichloro-4-(2-chloro-4-nitrophenoxy)-N-(3-fluorophenyl)benzenesulfonamide] | + |  | + | + |
| O=S(=O)(Nc1cc(Cl)cnc1Cl)c1ccc(Oc2ncc(C(F)(F)F)cc2Cl)cc1 [Compound 257, 4-{[3-chloro-5-(trifluoromethyl)pyridin-2-yl]oxy}-N-(2,5-dichloropyridin-3-yl) benzenesulfonamide] | + |  | + | + |

The next lines start with results.

| APC Flag 8 pt [1] | APC Flag (2 pt) [1] | SMILES | PAD Assay, A549 6 pt (A549 cells) | PAD Assay, HELA 6 pt (HeLa cells) |
| --- | --- | --- | --- | --- |
| + |  | Cc1ccc(NS(=O)(=O)c2cc(Cl)c(Oc3ccc([N+](=O)[O-])cc3Cl)c(Cl)c2)cc1I [Example 250, 3,5-dichloro-4-(2-chloro-4-nitrophenoxy)-N-(3-iodo-4-methylphenyl)benzenesulfonamide] | + | + |
| + |  | O=S(=O)(Nc1ccc(Oc2cc(C(F)(F)F)ccc2Cl)cc1F)c1cc(Cl)ccc1Cl [Example 277, 2,5-dichloro-N-{4-[2-chloro-5-(trifluoro-methyl)phenoxy]-2-fluorophenyl}benzene-sulfonamide] | + | + |
| + |  | O=[N+]([O-])c1ccc(Oc2c(Cl)cc(S(=O)(=O)Nc3c(F)cc(F)cc3F)cc2Cl)c(Cl)c1 [Example 241, 3,5-dichloro-4-(2-chloro-4-nitrophenoxy)-N-(2,4,6-trifluorophenyl)benzenesulfonamide] | + | + |
| + |  | Cc1c(Cl)cccc1S(=O)(=O)Nc1ccc(Oc2ccc([N+](=O)[O-])cc2)cc1 [Example 274, 3-chloro-2-methyl-N-[4-(4-nitrophenoxy)phenyl]benzenesulfonamide] | + | − |
| + |  | O=S(=O)(Nc1ccc(Oc2cc(C(F)(F)F)ccc2Cl)cc1F)c1ccc(F)cc1 [Example 286, N-{4-[2-chloro-5-(trifluoromethyl)phenoxy]-2-fluorophenyl)-4-fluorobenzenesulfonamide] | + | + |
| + |  | CC(C)(C)c1cc2cc(NS(=O)(=O)c3cc(Cl)c(Oc4ccc([N+](=O)[O-])cc4Cl)c(Cl)c3)ccc2[nH]1 [Example 245, N-(2-tert-butyl-1H-indol-5-yl)-3,5-dichloro-4-(2-chloro-4-nitrophenoxy)benzene-sulfonamide] | + | + |
| + |  | O=[N+]([O-])c1ccc(Oc2c(Cl)cc(S(=O)(=O)Nc3ccc(Oc4cc(C(F)(F)F)ccc4Cl)cc3F)cc2Cl)c(Cl)c1 [Example 290, 3,5-dichloro-4-(2-chloro-4-nitrophenoxy)-N-{4-[2-chloro-5-(trifluoromethyl)phenoxy]-2-fluorophenyl}benzenesulfonamide] | + | + |
| + |  | O=S(=O)(Nc1ccc(F)c(Cl)c1)c1ccc(Oc2ncc(C(F)(F)F)cc2Cl)cc1 [Example 256, N-(3-chloro-4-fluorophenyl)-4-{[3-chloro-5-(trifluoromethyl)pyridin-2-yl]oxy}benzene-sulfonamide] | + | + |
| + |  | O=S(=O)(Nc1ccc(Oc2ccc(F)cc2)c(Br)c1)c1ccc(OC(F)(F)F)cc1 [Example 284, N-[3-bRomo-4-(4-fluorophenoxy)phenyl]-4-(trifluoromethoxy)benzenesulfonamide] | + | + |
| + |  | O=S(=O)(Nc1ccc(Oc2c(Cl)cc(Cl)cc2Cl)cc1)c1cc(Cl)ccc1Cl [Example 279, 2,5-dichloro-N-[4-(2,4,6-trichlorophenoxy)phenyl]benzenesulfonamide] | + | + |
| + |  | O=[N+]([O-])c1ccc(Oc2ccc(S(=O)(=O)Nc3cc(Cl)ccc3Cl)cc2Cl)c(C(F)(F)F)c1 [Example 261, 3-chloro-N-(2,5-dichlorophenyl)-4-(4-nitro-2-(trifluoromethyl)phenoxy]benzene-sulfonamide] | + | + |
| + |  | O=S(=O)(Nc1cc(F)ccc1F)c1ccc(Oc2ncc(C(F)(F)F)cc2Cl)cc1 [Example 269, 4-{[3-chloro-5-(trifluoromethyl)pyridin-2-yl]oxy}-N-(2,5-difluorophenyl)benzene-sulfonamide] | − | − |
